How the values were obtained:
human PPAR α [1] = target: T1, human PPAR α (Homo sapiens, UniProt Q07869); assay: Exogeneous PPAR α agonist assay (GAL4 DNA binding domain/PPAR α ligand binding domain, luciferase) in 293T cells; format: cell-based; design: scale not given here; settings: 25 μM compound, 48 hours, luciferase activity increase relative to the control
T1 construct: expressed in transfected cells; host or cells: HepG2 (ATCC HB-8065) or 293T cells (ATCC CRL-1573)
T1 sequence (Q07869 239-466 limits assumed): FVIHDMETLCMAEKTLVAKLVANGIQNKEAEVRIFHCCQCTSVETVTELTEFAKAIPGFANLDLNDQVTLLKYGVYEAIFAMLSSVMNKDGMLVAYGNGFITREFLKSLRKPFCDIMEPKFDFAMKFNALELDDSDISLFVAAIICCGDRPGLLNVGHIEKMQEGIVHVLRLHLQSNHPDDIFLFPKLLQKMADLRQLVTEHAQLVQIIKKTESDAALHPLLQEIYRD
In short: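 HepG2 or 293T cells (2×10^4/well) lipofectamine-transfected 3 hours with PPAR α, UAS firefly-luciferase and Renilla-luciferase constructs. Compounds then added at 25 μM final and incubated 48 hours at 37° C. PPAR α activation measured as dual firefly/Renilla luciferase luminescence.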

ob/ob mice [2] = assay: Anti-obesity test: feed intake in ob/ob mice; format: in vivo; settings: 100 mg/kg oral twice a day, first week of the test, P<0.005, FIG. 1a
Method: (§1) In order to evaluate the anti-obesity activity of the inventive compound, B6.V-Lepob/J mice (laboratory animal team of Korea Research Institute of Chemical Technology) were used for tests and lean mice as a control. Ob/ob mice are model animals for insulin-independent diabetes, suitable for studying the effect of an anti-obesity drug.
(§2) 42 mice weighing 38.6±1.4 g were selected randomly from a pool of ob/ob mice (7-9 weeks old), and divided into groups of 7 mice each. The test was carried out at a constant temperature (24±0.5° C.) and humidity (55±5%) using ventilation system (10-12 times/hour), under a specific pathogen free (SPF) condition created in an automatic on-off cycle of 12 hours.
(§3) The groups were divided to a control group treated only with an excipient, a positive control group treated with fenofibrate, and test groups treated with each of the compounds of Examples 5, 62 and 65, at dosage 100 mg/10 ml/kg body weight. Each of the test and control compounds was diluted with 0.5% CMC to a concentration to match the above dosage, and administered orally using a syringe into the stomach twice a day (9:00 and 18:00) for a period of 4 weeks, and the following characteristics were measured.
1) General Symptoms and Observation of Dead Animal
The conditions, behavioral changes, addictive symptoms and the death rate were observed constantly during the test period.

ob/ob mice [3] = assay: Anti-obesity test: lipid metabolism-related materials and glucose in blood of ob/ob mice; format: in vivo; settings: 28 days; for GLU (glucose) / HDL (HDL-cholesterol) / LDL (LDL-cholesterol) / NEFA (free fatty acid) / TG (triglyceride): 100 mg/kg oral twice a day, fasted 16 hours, plasma
Method: as §1, §2, §3
3) Measurement of Lipid Metabolism-Related Materials and Insulin Concentration in Blood
28 days after the administration, experimental mice were fasted for 16 hours, and the concentrations of lipid metabolism-related materials such as triglyceride, free fatty acid and cholesterol, and insulin in blood were measured. Specifically, a blood sample was collected from the ocular venous plexus of each mouse and centrifuged to separate plasma. The glucose (GLU), HDL-cholesterol (HDL), LDL-cholesterol (LDL), triglyceride (TG) and free fatty acid (NEFA) levels were measured by enzymatic assay using 2 kinds of Selectra (Vital Lab), an automatic biochemical analyzer, and the insulin concentration was measured by ELISA using an insulin detection kit (Shibayagi).

ob/ob mice [4] = assay: Oral glucose tolerance test (OGTT) in ob/ob mice; format: in vivo; settings: for total changes in the glucose concentration represented by AUC compared to the control group: 0-120 min, P<0.05, P<0.005 and P<0.01, FIG. 3b; for glucose concentration during the fast compared to the control group: ob/ob mice, 28 days, fasted 16 hours, P<0.05, FIG. 3c
Method: as §1, §2, §3
4) Oral Glucose Tolerance Test (OGTT)
28 days after the administration, each of the experimental mice was fasted for 16 hours, 2 g/kg of glucose was administered thereto, a blood sample was collected from the ocular venous plexus thereof at 0, 15, 30, 60 and 120 min from the administration, and the glucose concentration and AUC (area under the curve, Skrumsager et al., J Clin Pharmacol. 43, 1244-1256, 2003) were determined.

ob/ob mice [5] = assay: Anti-obesity test: dissection, fat weights in ob/ob mice; format: in vivo; settings: ob/ob mice after completing all tests
Method: as §1, §2, §3
After completing all tests, each of the mice in test treated with the compounds of Examples 5 and 62 and the positive control group treated with fenofibrate was sacrificed, the whole blood, liver, muscle and white adipose tissue thereof were extracted. White adipose tissued was divided into visceral fat and subcutaneous fat, and the amounts of the total fats and liver tissue were weighed separately.

human PPAR α [6] = target: T1, human PPAR α; assay: Exogeneous PPAR α agonist assay (GAL4 DNA binding domain/PPAR α ligand binding domain, luciferase) in HepG2 cells; format: cell-based; settings: 25 μM compound, 48 hours, luciferase activity increase relative to the control
Method: Step 1) Exogeneous PPAR α Agonist Assay
Cross-activation assay of the compounds of Examples 1 to 134 against human PPAR α was carried out using a DNA construct of PPAR α including its ligand binding domain and GAL4 DNA binding domain (Sher et al., Biochemistry 32, 5598-5604, 1993) to analyze whether any of the compounds binds to the ligand binding domain of PPAR α expressed by the construct to affect the PPAR α activity. When the GAL4 DNA binding domainm which is fused with PPAR α ligand binding domain, binds to UAS (upstream activation sequence) of firefly-luciferase, the luciferase is expressed. Therefore, the effect of each of the compounds of Examples on PPAR α activation can be evaluated by analyzing the activation of luciferase.
Specifically, 2×10^4 of HepG2 (ATCC HB-8065) or 293T cells (ATCC CRL-1573) were aliquotted into each well of a 96-well plate and cultured for overnight at 37° C. in a CO2 incubator (culture condition: DMEM, 10% FBS and 1% antibiotics).
The transformation of PPAR α DNA was traced as follows. First, a mixture of the following ingredients in amounts per well; Solution A (Promega) containing 50 ng of full length human PPAR α DNA, 50 ng of firefly-luciferase construct, 5 ng of Renilla-luciferase construct, 1.0 μl of PLUS™ reagent, and 8.3 μl of a serum-free medium containing no antibiotics; was prepared and kept at room temperature for 15 min. Solution B, which contained 0.5 μl of Lipofectamine™ reagent and 9.5 μl of serum-free medium without antibiotics per well, and Solution C, which contained 50 μl of serum-free medium per well), were prepared. Solutions A, B and C were mixed together to prepare lipofectamin-DNA complex, and the mixture was kept at room temperature for 15 min. Single layer of cells on each well of a 96-well plate were washed with serum-free DMEM, 70 μl of lipofectamine-DNA complex prepared above was added thereto, the plate was incubated at 37° C. in a 5% CO2 incubator for 3 hours to transform the cells, and […] of a diluted solution of each of the compounds of Examples 1 to 134 per well was added to each well to a final concentration 25 μM, and incubated at 37° C. in a CO2 incubator for 48 hours. Then, the medium was removed, 50 μl of passive lysis buffer (Promega) was added thereto, and the plate was shook at room temperature for 20 min to lysis cells. 40 μl of Luciferase Assay reagent of Dual Luciferase Kit […] per 20 μl of cell lysis buffer was added to the plate, followed by reacting at 20° C. for 8 seconds, and 40 μl of Stop & Glo reagent (Promega) as a stop solution was added thereto to quench the reaction. The luminescence intensities of F-luciferase and R-luciferase were measured with MicroLumat Plus (Berthord Technology).

Structure (SMILES)	Activity at 25 μM Step 1 293T cell (human PPAR α [1])	Activity at 25 μM Step 1 HepG2 cell (human PPAR α [6])	GLU (glucose) (ob/ob mice [3])	HDL (HDL-cholesterol) (ob/ob mice [3])	LDL (LDL-cholesterol) (ob/ob mice [3])	NEFA (free fatty acid) (ob/ob mice [3])	TG (triglyceride) (ob/ob mice [3])	further results
Cc1ccc(-c2nc(COc3cccc(C(C)N(CC(=O)O)S(=O)(=O)N(C)C(C)C)c3)c(C)o2)cc1 (stereo not drawn) [Example 129, [N—(N-isopropyl-N-methylamino)sulfonyl-N-[1-[[3-(5-methyl-2-p-tolyloxazol-4-yl)methoxy]phenyl]ethyl]amino]acetic acid]	3	43	–	–	–	–	–	–
CN(C)S(=O)(=O)N(CC(=O)O)Cc1ccc(OCCc2coc(-c3ccccc3)n2)cc1 [Example 132, [N—(N,N-dimethylamino)sulfonyl-N-[4-[(2-phenyloxazol-4-yl)ethoxy]benzyl]amino]acetic acid]	5	32	–	–	–	–	–	–
CN(c1ccc(Cl)cc1)S(=O)(=O)N(CC(=O)O)Cc1ccc(OCCc2coc(-c3ccccc3)n2)cc1 [Example 133, [N—[[N-(4-chlorophenyl)-N-methyl]amino]sulfonyl-N-[4-[(2-phenyloxazol-4-yl)ethoxy]benzyl]amino]acetic acid]	4	34	–	–	–	–	–	–
CC(C)OC(=O)C(C)(C)Oc1ccc(C(=O)c2ccc(Cl)cc2)cc1 [fenofibrate, reference compound]	–	–	223.1 ± 77.2 mg/dL	280.5 ± 28.5 mg/dL	27.0 ± 4.7 mg/dL	1,003 ± 80 UEq/l	49.4 ± 6.1 mg/dL	–

Further lines, with some results ahead:

Activity at 25 μM Step 1 293T cell (human PPAR α [1])	Activity at 25 μM Step 1 HepG2 cell (human PPAR α [6])	Structure (SMILES)	GLU (glucose) (ob/ob mice [3])	HDL (HDL-cholesterol) (ob/ob mice [3])	LDL (LDL-cholesterol) (ob/ob mice [3])	NEFA (free fatty acid) (ob/ob mice [3])	TG (triglyceride) (ob/ob mice [3])	further results
2	–	Cc1oc(-c2ccc(C(F)(F)F)cc2)nc1COc1cccc(CN(CC(=O)O)S(=O)(=O)N(C)C)c1 [Example 5, [N—(N,N-dimethylamino)sulfonyl-N-[3-[[2-(4-trifluoromethylphenyl)-5-methyloxazol-4-yl]methoxy]benzyl]amino]acetic acid]	218.1 ± 125.5 mg/dL	292.1 ± 24.7 mg/dL	24.3 ± 4.3 mg/dL	880 ± 273 UEq/l	47.3 ± 12.4 mg/dL	daily feed intake compared to the control group (ob/ob mice [2]): significantly reduced; GLU concentration compared to the control or positive control group (ob/ob mice [3]): much lower; LDL concentration (ob/ob mice [3]; P<0.05): low; total changes in the glucose concentration represented by AUC compared to the control group (ob/ob mice [4]; 2 g/kg glucose): much lower; glucose concentration during the fast compared to the control group (ob/ob mice [4]): significantly low; weight of subcutaneous fat (ob/ob mice [5]): reduced; weight of visceral fat (ob/ob mice [5]): reduced; adiposity index (fat weight/(body weight—fat weight)) (ob/ob mice [5]; FIG. 4b): reduced; total fat weight (ob/ob mice [5]; P<0.01, P<0.005, FIG. 4a): low
1	–	Cc1oc(-c2ccc(C(F)(F)F)cc2)nc1CCOc1cccc(CN(CC(=O)O)S(=O)(=O)N(C)C)c1 [Example 65, [N—(N,N-dimethylamino)sulfonyl-N-[3-[2-[2-(4-trifluoromethylphenyl)-5-methyloxazol-4-yl]ethoxy]benzyl]amino]acetic acid]	158.8 ± 44.0 mg/dL	321.4 ± 31.8 mg/dL	33.0 ± 9.3 mg/dL	1,006 ± 203 UEq/l	45.9 ± 4.7 mg/dL	daily feed intake compared to the control group (ob/ob mice [2]): significantly reduced; GLU concentration compared to the control or positive control group (ob/ob mice [3]): much lower; HDL concentration (ob/ob mice [3]): high; total changes in the glucose concentration represented by AUC compared to the control group (ob/ob mice [4]; 2 g/kg glucose): much lower; glucose concentration at 30 and 60 min after the glucose administration compared to the control group (ob/ob mice [4]; 2 g/kg glucose, P<0.01, P<0.05, FIG. 3a): significantly low; glucose concentration during the fast compared to the control group (ob/ob mice [4]): significantly low
4	36	Cc1ccc(-c2nc(COc3cccc(CN(CCC(=O)O)S(=O)(=O)N(C)C)c3)c(C)o2)cc1 [Example 130, 3-[N—(N,N-dimethylamino)sulfonyl-N-[3-[(5-methyl-2-p-tolyloxazol-4-yl)methoxy]benzyl]amino]propionic acid]	–	–	–	–	–	–
5	41	CN(C)S(=O)(=O)N(CC(=O)O)Cc1cccc(OCCc2coc(-c3ccccc3)n2)c1 [Example 131, [N—(N,N-dimethylarino)sulfonyl-N-[3-[(2-phenyloxazol-4-yl)ethoxy]benzyl]amino]acetic acid]	–	–	–	–	–	–

— patent publication US20070254882A1, “Sulfamide Derivatives and Pharmaceutical Composition for Upregulation of Lipid Metabolism Comprising Same” (CRYSTAL GENOMICS, INC., priority 2004, published 2007)
